Assay results taken from BindingDB's records for doi:10.1021/jm00126a009 (Northeastern University, 1989).

Experiments:
[1] = Compound was evaluated for the ability to displace [3H]spiperone at Dopamine receptor D2 in porcine anterior pituitary gland as high affinity state
[2] = Compound was evaluated for the ability to displace [3H]spiperone at Dopamine receptor D2 in porcine anterior pituitary gland as low affinity state
[3] = Compound was evaluated for the ability to displace [3H]spiperone at dopamine receptor in porcine anterior pituitary gland as high affinity state
[4] = Compound was evaluated for the ability to displace [3H]spiperone at Dopamine receptor D2 in porcine anterior pituitary gland as low affinity state; remark: listed apart in the source

`CN1CCc2cc(Br)cc3c2[C@H]1Cc1ccc(O)c(O)c1-3` showed a Kd [1] of 6.8 nM and a Kd [2] of 728 nM.
With `CN1CCc2cc(F)cc3c2[C@H]1Cc1ccc(O)c(O)c1-3` [(R)-2-Fluoro-6-methyl-5,6,6a,7-tetrahydro-4H-dibenzo[de,g]quinoline-10,11-diol] the Kd [1] was 94 nM and the Kd [3] was 0.43 nM.
`CN1CCc2cc(N)cc3c2[C@H]1Cc1ccc(O)c(O)c1-3` gave a Kd [4] of 20 nM and a Kd [2] of 3300 nM.
